Laboratory results published in patent publication US20240358841A1, “NANOMATERIALS COMPRISING TETRAVALENT LIPID COMPOUNDS” (Beam Therapeutics Inc., priority 2021, published 2024).

How the values were obtained:
[1] = LNP encapsulation efficiency by Ribogreen assay; type: physicochemical; conditions: LNP: 47.5% ionizable lipid, 40% cholesterol, 2.5% PEG-2000 DMG, 10% DPSC, N/P 4-8
Description: (§1) LNPs were prepared with 47.5% Ionizable Lipid (e.g., a compound provided herein): 40% cholesterol: 2.5% PEG-2000 DMG; and 10% DPSC and an N/P ratio range of 4-8. LNPs were formed by microfluidic mixing of the lipid and NA solutions using a Precision Nanosystems NanoAssemblr Spark or Benchtop series Instruments, according to the manufacturers protocol. A ratio of aqueous to organic solvent of approximately 2:1 or 3:1 was maintained during mixing using differential flow rates. After mixing, LNPs were collected, diluted in phosphate buffer saline (PBS) or Tris-buffered saline (TBS) (approximately 1:1 v/v). Further buffer exchange was conducted using dialysis in PBS or TBS at 4° C. for 4 to 24 hours against a 20 kDa filter. After this initial dialysis, each individual LNP preparation was characterized via dynamic light scattering (DLS) to measure the size (e.g., diameter) and polydispersity. LNPs falling within specific diameter and polydispersity ranges were pooled, and further dialyzed against PBS or TBS at 4° C. for 1 to 4 hours against a 100 kDa dialysis cassette. After the second dialysis, LNPs were sterile filtered using 0.22 μm filter and stored at 4° C. for further use.
RNA concentration and encapsulation efficiency were determined by Ribogreen assay (BioTek Synergy LX plate reader).

[2] = LNP hydrodynamic diameter and polydispersity index by dynamic light scattering (DLS); type: physicochemical; conditions: LNP: 47.5% ionizable lipid, 40% cholesterol, 2.5% PEG-2000 DMG, 10% DPSC, N/P 4-8
Description: as §1
LNP hydrodynamic diameter and polydispersity index (PDI) were measured using high throughput dynamic light scattering (DLS) (Stunner, Unchained Labs). LNPs were diluted 1×TBS or PBS to an appropriate concentration and analyzed.

Structure (SMILES)	Mean Encapsulation Efficiency (%) [1]	Mean Diameter (nm) [2]	Mean PDI [2]
CCCCC/C=C\CCOC(=O)CCCCCCC(=O)OCC(COC(=O)CCCCCCC(=O)OCC/C=C\CCCCC)(COC(=O)CCCCCCC(=O)OCC/C=C\CCCCC)COC(=O)NCCN1CCCC1 [Compound 7-16, 8,8′-di((Z)-non-3-en-1-yl) O′1,O1-(2-(((8-(((Z)-non-3-en-1-yl)oxy)-8-oxooctanoyl)oxy)methyl)-2-((((2-(pyrrolidin-1-yl)ethyl)carbamoyl)oxy)methyl)propane-1,3-diyl) di(octanedioate)]	79.9%	108.5 nm	0.07
CC/C=C\CCCCOC(=O)CCCCCCC(=O)OCC(COC(=O)CCCCCCC(=O)OCCCC/C=C\CC)(COC(=O)CCCCCCC(=O)OCCCC/C=C\CC)COC(=O)NCCN1CCCC1 [Compound 7-18]	38.4%	153.0 nm	0.08
CCCCC/C=C\CCOC(=O)CCCCCC(=O)OCC(COC(=O)CCCCCC(=O)OCC/C=C\CCCCC)(COC(=O)CC12CC3CC(CC(C3)C1)C2)COC(=O)OCCCN(CC)CC [Compound 7-25, O′1,O1-(2-((2-((3r,5r,7r)-adamantan-1-yl)acetoxy)methyl)-2-((((3-(diethylamino)propoxy)carbonyl)oxy)methyl)propane-1,3-diyl) 7,7′-di((Z)-non-3-en-1-yl) di(heptanedioate)]	66.9%	123.1 nm	0.11
CCCCC/C=C\CCOC(=O)CCCC(=O)OCC(COC(=O)CCCC(=O)OCC/C=C\CCCCC)(COC(=O)CCCC(=O)OCC/C=C\CCCCC)COC(=O)OCCCN(CC)CC [Compound 7-37, O,O′-(2-((((3-(diethylamino)propoxy)carbonyl)oxy)methyl)-2-(((5-(((Z)-non-3-en-1-yl)oxy)-5-oxopentanoyl)oxy)methyl)propane-1,3-diyl) di((Z)-non-3-en-1-yl) diglutarate]	71.9%	119.7 nm	0.11
CCCCC/C=C\CCOC(=O)CCCCCC(=O)OCC(COC(=O)CCCCCC(=O)OCC/C=C\CCCCC)(COC(=O)CCCCCC(=O)OCC/C=C\CCCCC)COC(=O)CCCN1CCCC1 [Compound 7-51, 7,7′-di((Z)-non-3-en-1-yl) O′1,O1-(2-(((7-(((Z)-non-3-en-1-yl)oxy)-7-oxoheptanoyl)oxy)methyl)-2-(((4-(pyrrolidin-1-yl)butanoyl)oxy)methyl)propane-1,3-diyl) di(heptanedioate)]	77.1%	126.0 nm	0.08
CCCCC/C=C\CCOC(=O)CCCCCC(=O)OCC(COC(=O)CCCCCC(=O)OCC/C=C\CCCCC)(COC(=O)CCCN1CCCC1)COC(=O)CC12CC3CC(CC(C3)C1)C2 [Compound 7-53, O′1,O1-(2-((2-(adamantan-1-yl)acetoxy)methyl)-2-(((4-(pyrrolidin-1-yl)butanoyl)oxy)methyl)propane-1,3-diyl) 7,7′-di((Z)-non-3-en-1-yl) di(heptanedioate)]	43.3%	157.7 nm	0.08
CC/C=C\CCCCOC(CCC(=O)OCC(COC(=O)CCCCCOC(=O)C(CCCC)CCCCCC)(COC(=O)CCCCCOC(=O)C(CCCC)CCCCCC)COC(=O)OCCCN(CC)CC)OCCCC/C=C\CC (stereo not drawn) [Compound 7-55]	87.5%	80.1 nm	0.13
CC/C=C\CCCCOC(CCC(=O)OCC(COC(=O)CCCCCCOC(=O)C(CCCC)CCCCCC)(COC(=O)CCCCCCOC(=O)C(CCCC)CCCCCC)COC(=O)OCCCN(CC)CC)OCCCC/C=C\CC (stereo not drawn) [Compound 7-56]	88.1%	78.2 nm	0.11
CC/C=C\CCCCOC(CCC(=O)OCC(COC(=O)CCCCCCCOC(=O)C(CCCC)CCCCCC)(COC(=O)CCCCCCCOC(=O)C(CCCC)CCCCCC)COC(=O)OCCCN(CC)CC)OCCCC/C=C\CC (stereo not drawn) [Compound 7-57]	88.4%	81.0 nm	0.17
CC/C=C\CCCCOC(CCC(=O)OCC(COC(=O)CCCCCOC(=O)C(CCCC)CCCCCC)(COC(=O)CCCCCOC(=O)C(CCCC)CCCCCC)COC(=O)OCC1CCCN(CC)C1)OCCCC/C=C\CC (stereo not drawn) [Compound 7-58, ((2-(((4,4-bis(((Z)-oct-5-en-1-yl)oxy)butanoyl)oxy)methyl)-2-(((((1-ethylpiperidin-3-yl)methoxy)carbonyl)oxy)methyl)propane-1,3-diyl)bis(oxy))bis(6-oxohexane-6,1-diyl) bis(2-butyloctanoate)]	90.1%	77.7 nm	0.15
CC/C=C\CCCCOC(CCC(=O)OCC(COC(=O)CCCCCCOC(=O)C(CCCC)CCCCCC)(COC(=O)CCCCCCOC(=O)C(CCCC)CCCCCC)COC(=O)OCC1CCCN(CC)C1)OCCCC/C=C\CC (stereo not drawn) [Compound 7-59, ((2-(((4,4-bis(((Z)-oct-5-en-1-yl)oxy)butanoyl)oxy)methyl)-2-(((((1-ethylpiperidin-3-yl)methoxy)carbonyl)oxy)methyl)propane-1,3-diyl)bis(oxy))bis(7-oxoheptane-7,1-diyl) bis(2-butyloctanoate)]	86.7%	82.4 nm	0.15
CC/C=C\CCCCOC(CCC(=O)OCC(COC(=O)CCCCCCCOC(=O)C(CCCC)CCCCCC)(COC(=O)CCCCCCCOC(=O)C(CCCC)CCCCCC)COC(=O)OCC1CCCN(CC)C1)OCCCC/C=C\CC (stereo not drawn) [Compound 7-60, 2-(((4,4-bis(((Z)-oct-5-en-1-yl)oxy)butanoyl)oxy)methyl)-2-(((((1-ethylpiperidin-3-yl)methoxy)carbonyl)oxy)methyl)propane-1,3-diyl bis(8-((2-butyloctanoyl)oxy)octanoate)]	84.6%	86.6 nm	0.14
CC/C=C\CCCCOC(CCC(=O)OCC(COC(=O)CCCCCOC(=O)C(CCCC)CCCCCC)(COC(=O)CCCCCOC(=O)C(CCCC)CCCCCC)COC(=O)OCCCN(C)CC)OCCCC/C=C\CC (stereo not drawn) [Compound 7-61]	88.9%	76.1 nm	0.17
CC/C=C\CCCCOC(CCC(=O)OCC(COC(=O)CCCCCCOC(=O)C(CCCC)CCCCCC)(COC(=O)CCCCCCOC(=O)C(CCCC)CCCCCC)COC(=O)OCCCN(C)CC)OCCCC/C=C\CC (stereo not drawn) [Compound 7-62]	88.6%	80.2 nm	0.14
CC/C=C\CCCCOC(CCC(=O)OCC(COC(=O)CCCCCCCOC(=O)C(CCCC)CCCCCC)(COC(=O)CCCCCCCOC(=O)C(CCCC)CCCCCC)COC(=O)OCCCN(C)CC)OCCCC/C=C\CC (stereo not drawn) [Compound 7-63]	87.8%	79.6 nm	0.14
CC/C=C\CCCCOC(CCC(=O)OCC(COC(=O)CCCCCOC(=O)C(CCCC)CCCCCC)(COC(=O)CCCCCOC(=O)C(CCCC)CCCCCC)COC(=O)NCCN1CCCC1)OCCCC/C=C\CC (stereo not drawn) [Compound 7-64, ((2-(((4,4-bis(((Z)-oct-5-en-1-yl)oxy)butanoyl)oxy)methyl)-2-((((2-(pyrrolidin-1-yl)ethyl)carbamoyl)oxy)methyl)propane-1,3-diyl)bis(oxy))bis(6-oxohexane-6,1-diyl) bis(2-butyloctanoate)]	90.4%	82.1 nm	0.13
CC/C=C\CCCCOC(CCC(=O)OCC(COC(=O)CCCCCCOC(=O)C(CCCC)CCCCCC)(COC(=O)CCCCCCOC(=O)C(CCCC)CCCCCC)COC(=O)NCCN1CCCC1)OCCCC/C=C\CC (stereo not drawn) [Compound 7-65, ((2-(((4,4-bis(((Z)-oct-5-en-1-yl)oxy)butanoyl)oxy)methyl)-2-((((2-(pyrrolidin-1-yl)ethyl)carbamoyl)oxy)methyl)propane-1,3-diyl)bis(oxy))bis(7-oxoheptane-7,1-diyl) bis(2-butyloctanoate)]	89.2%	82.3 nm	0.15
CC/C=C\CCCCOC(CCC(=O)OCC(COC(=O)CCCCCCCOC(=O)C(CCCC)CCCCCC)(COC(=O)CCCCCCCOC(=O)C(CCCC)CCCCCC)COC(=O)NCCN1CCCC1)OCCCC/C=C\CC (stereo not drawn) [Compound 7-66, 2-(((4,4-bis(((Z)-oct-5-en-1-yl)oxy)butanoyl)oxy)methyl)-2-((((2-(pyrrolidin-1-yl)ethyl)carbamoyl)oxy)methyl)propane-1,3-diyl bis(8-((2-butyloctanoyl)oxy)octanoate)]	88.8%	87.2 nm	0.12
CC/C=C\CCCCOC(CCC(=O)OCC(COC(=O)CCCCCCC/C=C\C/C=C\CCCCC)(COC(=O)CCCCCCC/C=C\C/C=C\CCCCC)COC(=O)OCCCN(CC)CC)OCCCC/C=C\CC [Compound 7-67, 2-(((4,4-bis(((Z)-oct-5-en-1-yl)oxy)butanoyl)oxy)methyl)-2-((((3-(diethylamino)propoxy)carbonyl)oxy)methyl)propane-1,3-diyl (9Z,9′Z,12Z,12′Z)-bis(octadeca-9,12-dienoate)]	89.5%	87.5 nm	0.18
